We go through two compounds from article PMC9354243, “The Role of Tryptophan in π Interactions in Proteins: An Experimental Approach” (Journal of the American Chemical Society, 2022).

In assay [1] the target is T1, RibU W97Y labeled with 5,7diFW (Lactococcus lactis subsp. cremoris, UniProt D8KIE9, W97Y).
T1 construct: His10; made in house; host or cells: Lactococcus lactis Trp auxotroph NZ9000-trp with pMG36e-trpRS
In words: Fluorescence titration of RibU with RBF, 5,7diFW variant. It counts as binding. On the procedure: Fluorescence titration experiments of the different RibU constructs with RBF at 20 °C allowed estimation of the impact of W68 fluorination or 5-methylation on the binding affinity (Figure 3 and Table 5).
Figure 3 Titration of Trp analog labeled RibU W97Y proteins with RBF. The RBF fluorescence was measured at the indicated RBF concentrations in the absence (triangles) or presence (dots) of the W97Y RibU variant (see insets). The difference between these two signals were calculated to build the titration curve. This curve was used to compute the RBF Kd (see Experimental Section in the Supporting Information). […]
Binding assays – Fluorescence titrations of RibU with RBF.
The concentration of the riboflavin stock was established using a Jasco V-650 spectrophotometer with an ε435 of 12600 M-1.cm-1 The concentration of RibU-His was calculated using a Nanodrop (Thermo […]
Riboflavin was excited at 435 nm and emission was recorded between 450 nm and 700 nm using a FluoroLog 322 Spectrofluorometer (Jobin Yvon). […] Titration experiments were performed in a 1 mL quartz cuvette at 20 °C as described.13 In brief, purified and desalted RibU protein in gel filtration buffer was titrated with RBF and after each addition the emission spectrum was recorded twice, corrected for buffer emission and instrument response and integrated. […]

The target of a further assay is LmrR. Details: method as in Takeuchi et al. (SI ref 3, main ref 21). Particulars: 25 °C, SPR, ref Takeuchi et al. (SI ref 3, main ref 21); cited from earlier work.

T1 sequence (D8KIE9 whole entry W97Y): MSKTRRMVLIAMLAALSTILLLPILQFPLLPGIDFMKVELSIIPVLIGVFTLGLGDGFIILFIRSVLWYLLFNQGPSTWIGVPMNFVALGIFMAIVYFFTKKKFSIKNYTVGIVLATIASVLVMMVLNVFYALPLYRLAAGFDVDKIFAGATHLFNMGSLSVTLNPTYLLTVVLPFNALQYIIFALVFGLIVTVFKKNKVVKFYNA

Consider `Cc1cc2nc3c(=O)[nH]c(=O)nc-3n(C[C@H](O)[C@H](O)[C@H](O)CO)c2cc1C` [RBF, riboflavin], for which binding in assay [1] was characterised by a dissociation constant (Kd) of 8.2 ± 0.9 nM.

In the case of `COc1cccc2c1C(=O)c1c(O)c3c(c(O)c1C2=O)C[C@@](O)(C(C)=O)C[C@@H]3O[C@H]1C[C@H](N)[C@H](O)[C@H](C)O1` [Dau, Daunomycin], at LmrR, the Kd (commonly the equilibrium constant for the complex coming apart) is 350 nM.
